# Measurements: US20050277639A1, “2-Pyridinyl[7-(substituted-pyridin-4-yl)pyrazolo[1,5-a]pyrimidin-3-yl]methanones” (priority 2004, published 2005)
# Target: benzodiazepine receptor (Rattus norvegicus, UniProt P18508+P62813)
# Assay: Competition radioligand binding assay with [3H]Ro 15-1788 in washed cerebellar membranes
# Details: [3H]Ro 15-1788 binding; comparison with parent compound ocinaplon
smiles,measurement,value
"O=C(c1ccccn1)c1cnn2c(-c3cc(Br)nc(Br)c3)ccnc12 [2,6-dibromo, 2-Pyridinyl[7-(2,6-dibromopyridin-4-yl)pyrazolo[1,5-a]pyrimidin-3-yl]methanone]",affinity for the benzodiazepine receptor compared with ocinaplon,substantially lower affinity
